Data on one compound can be found in ChEMBL document CHEMBL1150915, “Dehydroradiosumin, a trypsin inhibitor from the cyanobacterium Anabaena cylindrica” (J Nat Prod, 1998).

SMILES strings stand for the structures. ≈ marks a conversion by molar mass, not a printed value. Calls of active or inactive are those of the source. The rule behind the calls is not given here.

Test [1] can be described thus: Inhibition of trypsin.
A further test addresses T1, Papain (Carica papaya) (UniProt P00784).
T1 sequence (whole entry): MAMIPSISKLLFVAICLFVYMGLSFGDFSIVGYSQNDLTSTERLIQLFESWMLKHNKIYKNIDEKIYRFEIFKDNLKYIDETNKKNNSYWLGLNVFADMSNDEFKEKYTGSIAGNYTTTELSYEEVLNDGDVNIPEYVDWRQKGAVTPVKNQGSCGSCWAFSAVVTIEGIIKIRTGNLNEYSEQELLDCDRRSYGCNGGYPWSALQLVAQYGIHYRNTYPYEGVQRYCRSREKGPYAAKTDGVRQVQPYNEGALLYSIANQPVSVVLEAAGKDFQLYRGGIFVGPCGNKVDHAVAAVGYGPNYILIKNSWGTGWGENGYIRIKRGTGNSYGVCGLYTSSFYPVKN
The test is described as follows: Inhibition of Carica papaya papain at 100 ug/mL.

In test [2] the target is Prothrombin (Homo sapiens) (UniProt P00734). Put plainly: Inhibition of thrombin at 100 ug/mL.
The nature of test [3]: Inhibition of elastase at 100 ug/mL.
Test [4] is described as follows: Inhibition of chymotrypsin at 100 ug/mL.
A further test concerns the target Plasminogen (Homo sapiens, UniProt P00747). The test is described as follows: Inhibition of plasmin.

Plasminogen, sequence (P00747 97-580 limits assumed): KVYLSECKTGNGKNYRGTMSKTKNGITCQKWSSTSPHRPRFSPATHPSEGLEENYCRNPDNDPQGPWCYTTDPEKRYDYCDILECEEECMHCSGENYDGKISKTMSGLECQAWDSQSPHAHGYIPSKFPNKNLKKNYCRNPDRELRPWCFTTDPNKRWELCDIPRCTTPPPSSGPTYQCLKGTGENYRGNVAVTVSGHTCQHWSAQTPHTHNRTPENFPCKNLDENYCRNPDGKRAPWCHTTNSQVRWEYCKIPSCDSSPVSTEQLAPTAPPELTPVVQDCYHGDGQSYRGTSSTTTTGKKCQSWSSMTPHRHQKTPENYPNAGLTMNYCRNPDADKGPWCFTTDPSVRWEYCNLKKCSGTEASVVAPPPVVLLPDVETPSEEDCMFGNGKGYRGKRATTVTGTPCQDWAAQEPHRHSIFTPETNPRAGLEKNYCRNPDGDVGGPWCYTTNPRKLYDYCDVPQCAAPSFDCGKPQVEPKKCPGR
Plasminogen, sequence (P00747 581-810 limits assumed): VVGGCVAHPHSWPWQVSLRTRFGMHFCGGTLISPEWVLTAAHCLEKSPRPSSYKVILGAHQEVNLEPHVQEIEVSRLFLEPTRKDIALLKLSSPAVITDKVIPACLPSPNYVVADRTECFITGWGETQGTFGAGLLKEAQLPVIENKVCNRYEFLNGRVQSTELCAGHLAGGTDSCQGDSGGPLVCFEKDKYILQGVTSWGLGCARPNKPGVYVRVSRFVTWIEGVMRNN

In the case of `CC(=O)N[C@@H](/C=C1/C=C[C@H](N)CC1)C(=O)N[C@@H](/C=C1/C=C[C@H](NC(C)=O)CC1)C(=O)O` [DEHYDRORADIOSUMIN], the figures for the concentration for half-maximal inhibition (IC50) (in test [1]; on Plasminogen) were 0.1 µg/mL (≈ 0.232 µM) and 209 µM, respectively. Also, the result (on Papain (Carica papaya); in test [2]; in test [3]; in test [4]) was inactive.

In general, IC50 refers to the concentration needed to halve the response being measured. A higher IC50 goes with a need for much substance.
